{"source": "patent EP0095451A2", "about": "“Novel dihydropyridines” (priority 1982, dated 1983)", "key": {"[1]": {"test_system": "spontaneously hypertensive rats (SHR) of the Okamoto strain", "assay": "Antihypertensive effect in conscious, unrestrained spontaneously hypertensive rats, oral cumulative dosing", "assay_type": "in vivo", "details": "Rattus norvegicus; dose giving 20 per cent reduction of mean arterial BP, by interpolation; oral intubation in methocel, cumulated doses 1, 5 and 25 µmoles/kg at 2 hour intervals", "method": "The antihypertensive effect of the compounds was tested in conscious, unrestrained spontaneously hypertensive rats (SHR) of the Okamoto strain. The animals had been prepared by prior implantation of indwelling catheters in the abdominal aorta via the femoral artery. Mean arterial blood pressure (MABP) and heart rate were continuously monitored. After a 2 hour control period the compound under study was administered by oral intubation at 2 hour intervals, suspended in methocel solution (5 ml/kg bodyweight). The cumulated doses were 1, 5 and 25)jmoles/kg bodyweight. The antihypertensive response, i.e. the BP'reduction to each dose, was expressed as a percentage of the initial control BP level and plotted against the dose on a logarithmic scale. The dose which would give 20 per cent BP reduction was then determined by interpolation."}, "[2]": {"test_system": "isolated portal vein preparation / paced isolated papillary heart muscle preparation", "assay": "Specificity towards smooth muscle relaxation: isolated portal vein versus paced papillary heart muscle in an organ bath", "design": "species or system Wistar rats", "details": "separation value: averaged difference of -log ED50 portal vein (vasodilatation) and -log ED50 papillary muscle (myocardial depression), transformed into numeric format", "method": "The specificity towards smooth muscle relaxation was examined as follows: The isolated portal vein preparation of Wistar rats was mounted in an organ bath together with a paced isolated papillary heart muscle preparation of the same animal. The integrated contractile activity of the portal vein smooth muscle and the peak force amplitude of the papillary, myocardial, preparation were recorded. The respective activities during a 30 min control period were set as 100 per cent and the ensuing activities under the influence of an agent under study were expressed as a percentage thereof. The agent was administered at 10 min intervals and the potency for vasodilatation (-log ED50 of portal vein) and that of myocardial depression (-log ED50 of ^pa^pill- ary muscle) were determined by interpolation from the concentration-effect relationships determined in each experiment. A \"separation\" value was determined for each compound by averaging the differences of the -log ED50 values for vasodilatation and myocardial depression, respectively, ogtained in the experiments. This logarithmic separation value was transformed into numeric format and entered into table 2."}}, "data": [{"compound": "COC(=O)C1=C(C)NC(C)=C(C(=O)OCCSCCN(C)C)C1c1cccc([N+](=O)[O-])c1", "note": "(stereo not drawn) [Compound 1, 2,6-dimethyl-4-(3-nitrophenyl)-1,4-dihydropyridine-3,5--dicarboxylic acid-3-[2-(N,N-dimethylaminoethylthio)ethyl]--5-methyl ester]", "values": [{"measurement": "ED20", "setting": "[1]", "result": 16, "unit": "µmol/kg"}, {"measurement": "Ratio heart vasc.", "setting": "[2]", "result": 30}]}, {"compound": "COC(=O)C1=C(C)NC(C)=C(C(=O)OCCSCCN(C)C)C1c1ccccc1[N+](=O)[O-]", "note": "(stereo not drawn) [Compound 2, 2,6-dimethyl-4-(2-nitrophenyl)-1,4-dihydropyridine-3,5--dicarboxylic acid-3-[2-(2-N,N-dimethylaminoethylthio)ethyl]--5-methyl ester]", "values": [{"measurement": "ED20", "setting": "[1]", "result": 30, "unit": "µmol/kg"}, {"measurement": "Ratio heart vasc.", "setting": "[2]", "result": 5}]}, {"compound": "COC(=O)C1=C(C)NC(C)=C(C(=O)OCCSCCN(C)C)C1c1cccc(C#N)c1", "note": "(stereo not drawn) [Compound 3, 2,6-dimethyl-4-(3-cyanophenyl)-1,4-dihydropyridine-3,5--dicarboxylic acid-3-[2-(2-N,N-dimethylaminoethylthio)ethyl)--5-methyl ester]", "values": [{"measurement": "ED20", "setting": "[1]", "result": 50, "unit": "µmol/kg"}, {"measurement": "Ratio heart vasc.", "setting": "[2]", "result": 18}]}, {"compound": "COC(=O)C1=C(C)NC(C)=C(C(=O)OCCSCCN(C)C)C1c1cccc(Cl)c1Cl", "note": "(stereo not drawn) [Compound 4, 2,6-dimethyl-4-(2,3-dichlorophenyl)-1,4-dihydropyridine-3,5-dicarboxylic acid-3-[2-(2-N,N-dimethyl-aminoethylthio)ethyl]-5-methyl ester]", "values": [{"measurement": "ED20", "setting": "[1]", "result": 19, "unit": "µmol/kg"}, {"measurement": "Ratio heart vasc.", "setting": "[2]", "result": 3}]}, {"compound": "CC1=C(C(=O)OCCSCCN(C)C)C(c2cccc(Cl)c2Cl)C(C(=O)OC(C)C)=C(C)N1", "note": "(stereo not drawn) [Compound 5, 2,6-dimethyl-4-(2,3-dichlorophenyl)-1,4-dihydropyridine--3,5-dicarboxylic acid-3-[2-(2-N,N-dimethylaminoethylthio)-ethyl)-5-(2-methylethyl)ester]", "values": [{"measurement": "ED20", "setting": "[1]", "result": 20, "unit": "µmol/kg"}, {"measurement": "Ratio heart vasc.", "setting": "[2]", "result": 19}]}, {"compound": "CCOC(=O)C1=C(C)NC(C)=C(C(=O)OCCSCCN(C)C)C1c1cccc(Cl)c1Cl", "note": "(stereo not drawn) [Compound 6, 2,6-dimethyl-4-(2,3-dichlorophenyl]-1,4-dihydropyridine--3,5-dicarboxylic acid-3-[2-(2-N,N-dimethylaminoethylthio)-ethyl]-5-ethyl ester]", "values": [{"measurement": "ED20", "setting": "[1]", "result": 25, "unit": "µmol/kg"}, {"measurement": "Ratio heart vasc.", "setting": "[2]", "result": 16}]}, {"compound": "COCCOC(=O)C1=C(C)NC(C)=C(C(=O)OCCSCCN(C)C)C1c1cccc(Cl)c1Cl", "note": "(stereo not drawn) [Compound 7, 2,6-dimethyl-4-(2,3-dichlorophenyl)-1,4-dihydropyridine--3,5-dicarboxylic acid-3-[2-(2-N,N-dimethylaminoetylthio-ethyl]-5-12-methoxyethyl) ester]", "values": [{"measurement": "ED20", "setting": "[1]", "result": 56, "unit": "µmol/kg"}, {"measurement": "Ratio heart vasc.", "setting": "[2]", "result": 20}]}, {"compound": "CCN(CC)CCSCCOC(=O)C1=C(C)NC(C)=C(C(=O)OC)C1c1cccc(Cl)c1Cl", "note": "(stereo not drawn) [Compound 8]", "values": [{"measurement": "ED20", "setting": "[1]", "result": 6, "unit": "µmol/kg"}, {"measurement": "Ratio heart vasc.", "setting": "[2]", "result": 4}]}, {"compound": "COC(=O)C1=C(C)NC(C)=C(C(=O)OCCSCCN2CCOCC2)C1c1cccc(Cl)c1Cl", "note": "(stereo not drawn) [Compound 9, 2,6-dimethyl-4-(2,3-dichlorophenyl)-1,4-dihydropyridine--3,5-dicarboxylic acid-3-[2-(2-morpholinoethylthio)-ethyl]--5-methyl ester]", "values": [{"measurement": "ED20", "setting": "[1]", "result": 5, "unit": "µmol/kg"}, {"measurement": "Ratio heart vasc.", "setting": "[2]", "result": 27}]}, {"compound": "COC(=O)C1=C(C)NC(C)=C(C(=O)OCCSCCN(Cc2ccccc2)C(C)C)C1c1cccc(Cl)c1Cl", "note": "(stereo not drawn) [Compound 10]", "values": [{"measurement": "ED20", "setting": "[1]", "result": 9, "unit": "µmol/kg"}, {"measurement": "Ratio heart vasc.", "setting": "[2]", "result": 22}]}, {"compound": "COC(=O)C1=C(C)NC(C)=C(C(=O)OCCSCCCN(C)C)C1c1cccc(Cl)c1Cl", "note": "(stereo not drawn) [Compound 11, 2,6-dimethyl-4-(2,3-dichlorophenyl)-1,4-dihydropyridine--3,5-dicarboxylic acid-3-[2-(3-N,N-dimethylaminopropylthio)-ethyl]-5-methyl ester]", "values": [{"measurement": "Ratio heart vasc.", "setting": "[2]", "result": 3}]}, {"compound": "COCCOC(=O)C1=C(C)NC(C)=C(C(=O)OCCSCCN(Cc2ccccc2)C(C)C)C1c1cccc(Cl)c1Cl", "note": "(stereo not drawn) [Compound 12, 2,6-dimethyl-4-(2,3-dichlorophenyl)-1,4-dihydropyridine--3,5-dicarboxylic acid-3-[2-(2-N-isopropyl-N-benzylethyl-thio)ethyl]-5-(2-methoxyethyl) ester]", "values": [{"measurement": "ED20", "setting": "[1]", "result": 26, "unit": "µmol/kg"}, {"measurement": "Ratio heart vasc.", "setting": "[2]", "result": 50}]}, {"compound": "COCCOC(=O)C1=C(C)NC(C)=C(C(=O)OCCSCCN2CCOCC2)C1c1cccc(Cl)c1Cl", "note": "(stereo not drawn) [Compound 13, 2,6-dimethyl-4-(2,3-dichlorophenyl)-1,4-dihydropyridine-3,5-dicarboxylic acid-3-[2-(2-morpholinoethyl-thio)ethyl]-5-(2-methoxethyl) ester]", "values": [{"measurement": "ED20", "setting": "[1]", "result": 15, "unit": "µmol/kg"}, {"measurement": "Ratio heart vasc.", "setting": "[2]", "result": 70}]}, {"compound": "COC(=O)C1=C(C)NC(C)=C(C(=O)OC)C1c1ccccc1[N+](=O)[O-]", "note": "[Nifedipine, 2,6-dimethyl-4-(2-nitrophenyl)-1,4-dihydropyridine-3,5-dicarboxylic acid-3,5-dimethylester, reference compound]", "values": [{"measurement": "ED20", "setting": "[1]", "result": 5, "unit": "µmol/kg"}, {"measurement": "Ratio heart vasc.", "setting": "[2]", "result": 15}]}]}
